Data: US10793553B2, “TLR7/8 antagonists and uses thereof” (Merck Patent GmbH, priority 2017, dated 2020)

Key:
TLR8 = target: T1, TLR8 (Homo sapiens, UniProt Q9NR97); assay: HEK TLR8 Cell Assay; type: cell-based; conditions: TLR8/NFKb HEK cells, R848 agonist 30 uM final, Steady-Glo readout
T1 construct: expressed in transfected cells; host or cells: HEK cells carrying TLR8 and an NFkB luciferase reporter
T1 sequence (Q9NR97 27-1041): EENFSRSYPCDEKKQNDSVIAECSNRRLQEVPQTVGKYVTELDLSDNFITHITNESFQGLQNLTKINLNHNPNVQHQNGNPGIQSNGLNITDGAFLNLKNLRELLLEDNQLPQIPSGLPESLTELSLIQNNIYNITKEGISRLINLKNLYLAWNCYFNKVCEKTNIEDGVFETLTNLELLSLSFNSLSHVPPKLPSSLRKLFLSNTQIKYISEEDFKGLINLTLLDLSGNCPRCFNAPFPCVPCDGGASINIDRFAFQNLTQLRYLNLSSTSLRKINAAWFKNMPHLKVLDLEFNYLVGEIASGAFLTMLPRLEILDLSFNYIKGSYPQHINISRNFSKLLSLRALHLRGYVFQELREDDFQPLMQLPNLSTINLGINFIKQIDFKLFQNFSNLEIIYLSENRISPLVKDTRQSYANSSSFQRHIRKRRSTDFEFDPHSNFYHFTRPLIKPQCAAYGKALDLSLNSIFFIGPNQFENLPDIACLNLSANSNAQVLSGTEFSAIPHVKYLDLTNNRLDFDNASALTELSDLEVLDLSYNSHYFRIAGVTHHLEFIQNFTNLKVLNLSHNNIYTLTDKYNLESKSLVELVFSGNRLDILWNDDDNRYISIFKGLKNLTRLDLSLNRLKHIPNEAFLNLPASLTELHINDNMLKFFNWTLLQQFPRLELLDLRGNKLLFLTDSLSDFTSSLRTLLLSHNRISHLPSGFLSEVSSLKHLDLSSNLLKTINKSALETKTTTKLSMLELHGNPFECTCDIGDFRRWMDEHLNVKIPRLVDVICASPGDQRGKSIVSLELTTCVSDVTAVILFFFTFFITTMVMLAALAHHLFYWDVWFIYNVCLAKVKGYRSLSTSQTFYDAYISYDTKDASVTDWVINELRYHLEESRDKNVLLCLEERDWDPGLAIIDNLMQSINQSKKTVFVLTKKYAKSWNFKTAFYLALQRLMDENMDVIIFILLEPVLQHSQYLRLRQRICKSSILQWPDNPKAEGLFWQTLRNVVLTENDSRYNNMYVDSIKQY
Experimental: Example 25: HEK TLR8 Cell Assay
(§1) Into 384 CulturePlates (Corning 3707) was placed 5000 c/w of TLR8/NFKb HEK cells in 30 uL DMEM without Phenol red (gibco #31053) and 10% FCS-HI, 2 mM L-Glutamine, 1% Pen/Strept. The cells are incubated for 24 h at 37 degrees Celsius, and 10% carbon dioxide. Dispense 3 uL of controls, standards, and compounds to wells, incubate for 30 min then add 3 uL of R848 (30 uM final concentration) agonist in 20 mM Hepes. Incubate for 5 hours and then allow to stand at room temperature for 15 min. Add 10 uL of Steady-Glo substrate reagent and shake assay plate for 5 min at 1500 rpm. Let the assay plate sit for 30 min at room temperature and then read plate on EnVision.

TLR7 = target: T2, TLR7 (Homo sapiens, UniProt Q9NYK1); assay: HEK TLR7 Cell Assay; type: cell-based; conditions: TLR7/NFKb HEK cells, R848 agonist 10 uM final, Steady-Glo readout
T2 construct: expressed in transfected cells; host or cells: HEK cells carrying TLR7 and an NFkB luciferase reporter
T2 sequence (Q9NYK1 27-1049): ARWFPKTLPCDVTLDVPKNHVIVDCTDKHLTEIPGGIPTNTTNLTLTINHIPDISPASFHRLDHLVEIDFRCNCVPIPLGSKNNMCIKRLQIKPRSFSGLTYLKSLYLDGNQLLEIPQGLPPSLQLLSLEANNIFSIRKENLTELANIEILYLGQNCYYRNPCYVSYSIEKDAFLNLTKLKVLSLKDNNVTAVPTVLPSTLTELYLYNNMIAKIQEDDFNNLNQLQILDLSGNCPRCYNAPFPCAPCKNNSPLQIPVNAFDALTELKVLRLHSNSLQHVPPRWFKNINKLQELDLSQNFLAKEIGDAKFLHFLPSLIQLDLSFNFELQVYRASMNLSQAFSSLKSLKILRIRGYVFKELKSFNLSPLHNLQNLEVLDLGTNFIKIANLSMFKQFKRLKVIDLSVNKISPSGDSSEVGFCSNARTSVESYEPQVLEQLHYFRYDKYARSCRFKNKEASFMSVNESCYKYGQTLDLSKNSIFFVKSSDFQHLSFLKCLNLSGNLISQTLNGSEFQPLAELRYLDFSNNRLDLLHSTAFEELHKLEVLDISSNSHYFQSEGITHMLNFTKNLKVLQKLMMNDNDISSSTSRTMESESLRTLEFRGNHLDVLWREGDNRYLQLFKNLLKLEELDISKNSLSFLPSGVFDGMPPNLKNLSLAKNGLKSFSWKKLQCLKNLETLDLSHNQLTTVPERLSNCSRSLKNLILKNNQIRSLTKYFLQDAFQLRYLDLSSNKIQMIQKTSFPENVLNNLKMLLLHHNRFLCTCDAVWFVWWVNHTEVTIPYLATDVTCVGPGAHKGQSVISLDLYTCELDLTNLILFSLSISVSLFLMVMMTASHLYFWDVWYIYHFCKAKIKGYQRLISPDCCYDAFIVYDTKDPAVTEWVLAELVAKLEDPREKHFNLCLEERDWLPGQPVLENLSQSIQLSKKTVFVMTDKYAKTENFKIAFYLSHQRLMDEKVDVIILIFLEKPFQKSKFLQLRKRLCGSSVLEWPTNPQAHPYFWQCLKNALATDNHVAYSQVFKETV
Experimental: Example 24: HEK TLR7 Cell Assay
as §1, with “TLR7/NFKb” for “TLR8/NFKb”, “(10” for “(30”

Row | Compound | IC50 (TLR8) | IC50 (TLR7)
1 | Cc1ncc(N2C[C@@H](C)[C@@H](NC(=O)CC3CCN(C)CC3)C2)c2cccnc12 [Compound 52, N-[(3R,4R)-4-methyl-1-(8-methyl-[1,7]naphthyridin-5-yl)-pyrrolidin-3-yl]-2-(1-methyl-piperidin-4-yl)-acetamide] | > 10000 nM | < 1000 nM
2 | C[C@@H]1CN(c2ccc(C#N)c3nccnc23)C[C@@H]1NC(=O)CC1CCN(C)CC1 [Compound 2, N-[(3R,4R)-1-(8-cyanoquinoxalin-5-yl)-4-methylpyrrolidin-3-yl]-2-(1-methylpiperidin-4-yl)acetamide] | < 1000 nM | < 1000 nM
3 | CC(C)[C@H](O)C(=O)N[C@H]1CN(c2ccc(C#N)c3nccnc23)C[C@H]1C [Compound 15, (2S)—N-[(3R,4R)-1-(8-cyanoquinoxalin-5-yl)-4-methylpyrrolidin-3-yl]-2-hydroxy-3-methylbutanamide] | 1000 to 10000 nM | 1000 to 10000 nM
4 | C[C@@H]1CN(c2ccc(C#N)c3nccnc23)C[C@@H]1NC(=O)CC1(F)CCN(C)CC1 [Compound 10, N-[(3R,4R)-1-(8-cyanoquinoxalin-5-yl)-4-methylpyrrolidin-3-yl]-2-(4-fluoro-1-methylpiperidin-4-yl)acetamide] | < 1000 nM | < 1000 nM
5 | Cc1ncc(N2C[C@@H](C)[C@@H](NC(=O)CC3CN(C)C3)C2)c2cccnc12 [Compound 53, 2-(1-methyl-azetidin-3-yl)-N-[(3R,4R)-4-methyl-1-(8-methyl-[1,7]naphthyridin-5-yl)-pyrrolidin-3-yl]-acetamide] | > 10000 nM | 1000 to 10000 nM
6 | Cc1ccc(N2C[C@@H](C)[C@@H](NC(=O)C(O)C3CC3)C2)c2cccnc12 (single isomer, unassigned) [Compound 45] | > 10000 nM | > 10000 nM

More lines, now with the values ahead:

Row | IC50 (TLR8) | IC50 (TLR7) | Compound
7 | 1000 to 10000 nM | < 1000 nM | Cc1ccc(N2C[C@@H](C)[C@@H](NC(=O)CC3(F)CCNCC3)C2)c2cccnc12 [Compound 41, 2-(4-fluoropiperidin-4-yl)-N-[(3R,4R)-4-methyl-1-(8-methylquinolin-5-yl)pyrrolidin-3-yl]acetamide]
8 | < 1000 nM | < 1000 nM | C[C@@H]1CN(c2ccc(C(F)(F)F)c3ncccc23)C[C@@H]1NC(=O)CC1CCN(C)C1 (single isomer, unassigned) [Compound 21]
9 | 1000 to 10000 nM | 1000 to 10000 nM | Cc1ccc(N2C[C@@H](C)[C@@H](NC(=O)CC3CCN(C)CC3(F)F)C2)c2cccnc12 (single isomer, unassigned) [Compound 44]
10 | < 1000 nM | < 1000 nM | C[C@@H]1CN(c2ccc(C(F)(F)F)c3ncccc23)C[C@@H]1NC(=O)CC1(F)CCNCC1 [Compound 25, 2-(4-fluoropiperidin-4-yl)-N-[(3R,4R)-4-methyl-1-[8-(trifluoromethyl)quinolin-5-yl]pyrrolidin-3-yl]acetamide]
